Values quoted from earlier work, collected in patent publication US11261215B2, “Somatostatin prodrugs” (YISSUM RESEARCH DEVELOPMENT COMPANY OF THE HEBREW …, priority 2017, dated 2022).
Numbered stars: 1 amine (or outer) side, 2 acyl side, 3 side chain; on linkers, the order of the positions; unused ones are H or OH. Bridge positions count the residues as written; N and C are the ends. Square brackets hold non-standard residues; d marks the D form. Ends that are not written are not given here. PheC3 = Phe building unit, N-alpha-omega-functionalized derivative for backbone cyclization; N(2-aminoethyl)Phe = O=C([C@H](Cc1ccccc1)N(CCN[*:3])[*:1])[*:2]; dNMeW = CN[C@H](Cc1c[nH]c2ccccc12)C(=O)O; NMeF = CN[C@@H](Cc1ccccc1)C(=O)O; NMeK = CN[C@@H](CCCCN)C(=O)O

Experiments:
[1] = system: GH, glucagon and insulin secretion; settings: cited from earlier work
somatostatin receptors = settings: cited from earlier work
SSTR5 = SSTR5 (Homo sapiens, UniProt P35346); settings: cited from earlier work
[2] = system: amylase and lipase release from the pancreas; settings: in vivo; cited from earlier work
[3] = rats, oral administration; cited from earlier work

SSTR5, sequence (P35346 whole entry, species assumed): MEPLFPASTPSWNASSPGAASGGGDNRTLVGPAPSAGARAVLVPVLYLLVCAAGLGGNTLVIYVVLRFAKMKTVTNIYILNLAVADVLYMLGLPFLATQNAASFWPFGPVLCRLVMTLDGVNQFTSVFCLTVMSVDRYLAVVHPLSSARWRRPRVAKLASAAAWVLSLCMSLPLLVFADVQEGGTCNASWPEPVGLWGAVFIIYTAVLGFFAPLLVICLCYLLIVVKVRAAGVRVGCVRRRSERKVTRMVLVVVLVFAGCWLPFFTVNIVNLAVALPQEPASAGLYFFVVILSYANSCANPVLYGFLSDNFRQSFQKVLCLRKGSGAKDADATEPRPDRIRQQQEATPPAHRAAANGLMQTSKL

GABA-Phe-Trp-DTrp-Lys-Thr-Phe-GlyC3-NH2 (XFWWKTFG; not fully specified; GABA, backbone cyclized, C-terminal amide; MOD_RES (1)..(1) 4Abu, GABA; MOD_RES (1)..(8) backbone-to-end cyclization between the N-alpha-omega-functionalized derivative of GlyC3 and the N-terminus; MOD_RES (4)..(4) D-Trp; MOD_RES (8)..(8) AMIDATION; MOD_RES (8)..(8) GlyC3 building unit) [PTR-3173]
effect on insulin secretion ([1]; at physiological concentrations): no effect
GH:insulin potency ratio ([1]; in vivo): > 10,000
potency in the in vivo inhibition of GH relative to that of glucagon ([1]; in vivo): 1000 fold
selectivity toward the somatostatin receptors (somatostatin receptors): selective towards the SSTR2, SSTR4 and SSTR5

PheC3-Cys-Phe-DTrp-Lys-Thr-Cys-Phe-PheN3-X (FCFWKTCFF; not fully specified; backbone cyclized; MOD_RES (1)..(1) PheC3 building unit; MOD_RES (1)..(9) backbone cyclization between the N-alpha-omega- functionalized derivative of X1 and the N-alpha-omega- functionalized derivative of X9; DISULFID (2)..(7) bridge; MOD_RES (4)..(4) D-Trp; MOD_RES (9)..(9) PheN3 building unit; MOD_RES (9)..(9) AMIDATION) [PTR-3205]
selectivity toward the somatostatin receptors (somatostatin receptors): selective towards SSTR2

PheN2-Tyr-DTrp-Lys-Val-PheC3-Thr-NH2 ([N(2-aminoethyl)Phe]Y[dW]KV[PheC3]T-NH2; bridge 1-6; not fully specified (bridges); printed as PheN2-Tyr-DTrp-Lys-Val-PheC3-Thr-NH2) [PTR-3046]
GH or glucagon release ([1]; in vivo): without inhibiting
selectivity toward the somatostatin receptors (somatostatin receptors): selective toward the SSTR5
IC50 (SSTR5): nanomolar range
bombesin- and caerulein-induced amylase and lipase release from the pancreas [2]: inhibits

c(PF(NMe)w(NMe)KT(NMe)F) (cyclo(PF[dNMeW][NMeK]T[NMeF]); SMILES C[C@@H](O)[C@@H]1NC(=O)[C@H](CCCCN)N(C)C(=O)[C@@H](Cc2c[nH]c3ccccc23)N(C)C(=O)[C@H](Cc2ccccc2)NC(=O)[C@@H]2CCCN2C(=O)[C@H](Cc2ccccc2)N(C)C1=O) [Somato8]
calculated absolute oral bioavailability [3]: ~10%
